According to patent US11413349B2, “Green methodology to create polymeric nanocarriers containing hydrophilic low molecular-weight drugs and providing a very high drug loading and a very high prolonged release” (UNIVERSIDAD DE CHILE, priority 2019, dated 2022):
Read-outs that look alike come from different tables or passages of the source.

How the values were obtained:
[1] = Diafiltration study of kinetically and thermodynamically bound drug; format: physicochemical
Experimental: Diafiltration studies were carried out to determine the fraction of amitriptyline (AMT) that was kinetically or thermodynamically bound to poly(sodium 4-styrenesulfonate (PSS) as the nanoparticle. For this study, diafiltration was been modeled as a two-compartment system, where a continuous liquid supply from the donor chamber (reservoir) is kept, maintaining a constant volume in the diafiltration cell. The unit used for diafiltration analyses consisted of a diafiltration cell, a regenerated cellulose membrane, a reservoir, a […], and a pressure source. […] The volume in the filtration cell was kept constant during the experiment, by creating a continuous flux of liquid through the diafiltration cell, from the reservoir to the collector tube. […] A total of 8 samples (approx. 5 mL) were collected and AMT concentration in each sample was determined by spectrophotometry. Subsequently, the thermodynamically bound (TB) and kinetically bound (KB) fractions were determined as follows: TB=v(km-j)/km KB=u-um The parameters v and u represent the initial fraction of AMT thermodynamically bound to the particles, thus in equilibrium, and the fraction bound to the nanocarriers whose release is kinetically controlled, respectively. […] A total of 8 samples (approx. 5 mL) were collected and the concentration of the interest species in each sample was determined by spectrophotometry. […]

[2] = In vitro drug release by dialysis; format: physicochemical; conditions: AMT/PSS n+/n−=0.60, dialysis, pH=7 and 37° C., 20 days
Experimental: The in vitro drug release of amitriptyline (AMT) from poly (sodium 4-styrenesulfonate (PSS) was evaluated using a dialysis method. Briefly, 5 mL of AMT/PSS (n+/n−=0.60) was transferred to a dialysis membrane. The membrane was immersed in 95 mL of Milli-Q water at pH 7 and kept at 37° C. and 100 rpm in an orbital shaker. The experiment was carried out for 20 days. Aliquots (500 μL) of the solution were withdrawn at certain time intervals and replaced with an equal volume of fresh Milli-Q water. The amount of released AMT was determined by measuring the absorbance of each aliquot at 239 nm. The standard curve of AMT in water was linear (R2>0.997) in the range of concentrations between 7×10^−5 M and 7×10^−7 M (molar extinction coefficient was 12712 M^−1 cm^−1). Blank experiments dialyzing free AMT were carried out at the same conditions.
i) Dialysis: 5 mL of HALMD/PSS formulations were added in a dialysis bag (MWCO 10 kDa, ThermoScientific, USA). The dialysis system was immersed in 95 mL of Milli-Q water at pH 7 and kept at 37° C., and 100 rpm in an orbital shaker (LSI-3016R, LabTech, Daihan LabTech, Kyonggi-Do, Korea). […] The amount of released HALMD (CQ, PMZ and CPM) was determined by measuring the absorbance of each aliquot by spectrophotometry (Agilent 8453 spectrophotometer, USA).

[3] = cited from earlier work
[4] = cited from earlier work; remark: listed apart in the source

In the case of `CN(C)CCC=C1c2ccccc2CCc2ccccc21` [AMT, amitriptyline], the “drug molecules not subjected to equilibrium with the bulk (release kinetically controlled)” value ([1]; AMT/PSS formulations) is listed as “more than 80%”, the “release of AMT” value [2] is listed as no more than 16.5% and the release ([3]; from polyvinyl alcohol-based beads, first stage of the experiment (Ahnfelt et al)) is listed as greater than 80%.

For `CN(C)CCC(c1ccc(Cl)cc1)c1ccccn1` (centres unmarked) [Chlorpheniramine], the “drug association attributed to kinetic binding” value ([1]; HALMD/PSS NPs) is listed as “≈ 50%”, the pKa [4] is listed as 4.0 and the pKa ([4]; second value) is listed as 9.4.

In the case of `COc1cccc2c1C(=O)c1c(O)c3c(c(O)c1C2=O)C[C@@](O)(C(=O)CO)C[C@@H]3O[C@H]1C[C@H](N)[C@H](O)[C@H](C)O1` [doxorubicin], the initial drug release ([3]; poly(N-isopropylacrylamide)-based thermosensitive hydrogel (Chen et al)) is listed as 40%.

For `CN(C)CCCN1c2ccccc2CCc2ccccc21` [imipramine], the burst release ([3]; from calcium-alginate gel beads, 1-2 h (Tomida et al)) is listed as “≈ 80%”.
